Laboratory results from patent US20060188913A1, “Methods and products for enhancing immune responses using imidazoquinoline compounds” (University of Iowa Research Foundation, priority 2001, published 2006).

Experiments:
hTLR9 = molecular target: T1, hTLR9 (Homo sapiens, UniProt Q9NR96, H530R/Q688R); experiment: NF-kappa B luciferase activation in 293T cells transiently transfected with hTLR9; format: cell-based; settings: hTLR9-transfected 293T cells, positive control for transfection
T1 construct: 293-TLR9-Luc cells contain a genomic copy of the hTLR9 open reading frame and the NF-kappa B-luciferase cassette; expressed in transfected cells; host or cells: 293-TLR9-Luc (stably transfected human embryo kidney 293 cells)
T1 sequence (Q9NR96 26-1032 H530R/Q688R): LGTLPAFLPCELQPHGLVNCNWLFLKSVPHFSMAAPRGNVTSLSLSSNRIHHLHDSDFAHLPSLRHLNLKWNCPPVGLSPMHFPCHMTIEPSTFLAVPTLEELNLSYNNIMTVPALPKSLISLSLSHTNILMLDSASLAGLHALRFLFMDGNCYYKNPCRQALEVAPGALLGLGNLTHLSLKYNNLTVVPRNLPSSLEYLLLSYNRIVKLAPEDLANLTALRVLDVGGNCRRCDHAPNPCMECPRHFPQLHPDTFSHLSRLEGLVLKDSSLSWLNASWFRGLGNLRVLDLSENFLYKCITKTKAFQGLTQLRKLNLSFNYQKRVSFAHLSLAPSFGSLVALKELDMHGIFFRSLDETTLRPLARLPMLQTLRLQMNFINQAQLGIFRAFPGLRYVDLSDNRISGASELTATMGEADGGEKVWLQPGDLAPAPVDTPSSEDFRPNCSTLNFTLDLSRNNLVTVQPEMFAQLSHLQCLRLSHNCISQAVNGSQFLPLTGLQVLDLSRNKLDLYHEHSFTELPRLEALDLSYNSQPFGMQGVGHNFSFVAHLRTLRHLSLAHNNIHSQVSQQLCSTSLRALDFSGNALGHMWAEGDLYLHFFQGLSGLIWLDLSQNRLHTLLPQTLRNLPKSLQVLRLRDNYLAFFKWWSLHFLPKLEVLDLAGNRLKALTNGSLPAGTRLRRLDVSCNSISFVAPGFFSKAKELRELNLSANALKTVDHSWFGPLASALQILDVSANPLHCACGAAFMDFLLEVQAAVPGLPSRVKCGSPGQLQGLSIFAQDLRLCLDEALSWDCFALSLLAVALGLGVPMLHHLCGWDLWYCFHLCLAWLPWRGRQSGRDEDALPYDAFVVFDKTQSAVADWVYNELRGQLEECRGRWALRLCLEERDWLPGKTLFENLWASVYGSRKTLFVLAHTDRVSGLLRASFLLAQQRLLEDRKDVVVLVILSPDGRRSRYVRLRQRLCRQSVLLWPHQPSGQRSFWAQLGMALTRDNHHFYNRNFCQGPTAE
Protocol: Cells used for transfections were 293T (human embryo kidney cells, T-antigen transfected) or 293-TLR9-Luc (stable transfectants, human embryo kidney cells expressing the human TLR9 receptor and containing a genomic NF-kappa B-luciferase cassette).
Transfections were performed in six-well plates. Cells were plated the day before transfection at 4×10^5/well in DMEM+10% FCS.
Constructs: TLR cDNAs were cloned into pcDNA3.1. NF-kappa B activation was measured by using an 5× NF-kappa B-Luciferase construct (Stratagene). Transfection efficiency was determined by using a beta-galactosidase (beta-gal) reporter construct (p beta-Gal-Control, Clontech).
Stimulation was performed 24 h after transfection. Medium of the cells was reduced to 1 ml (without medium change) and cells were stimulated with indicated amounts of R-848, LPS, ODN 8954, 2006 and IL-1 beta for 16 h.
Cell extracts were prepared by lysing the cells in 100 μl reporter lysis buffer using the freeze-thaw method. NF-kappa B stimulation was measured through luciferase activity (Promega). All data were normalized for beta-gal expression. Stimulation indices were calculated in reference to luciferase activity of medium without addition of ODN.
293T cells, stably transfected with a NF-kappa B-luciferase reporter construct, were transiently transfected with plasmids (pcDNA3.1 constructs) coding for full length hTLR2, hTLR7, hTLR8 and hTLR9. […]

hTLR7 = molecular target: T2, hTLR7 (Homo sapiens, UniProt Q9NYK1); experiment: IL-8 production in 293 fibroblasts transiently expressing hTLR7; format: cell-based; settings: CpG-ODN 2 μM, LPS 100 ng/ml
T2 construct: plasmids (pcDNA3.1 constructs) coding for full length hTLR2, hTLR7, hTLR8 and hTLR9; expressed in transfected cells; host or cells: 293T cells
T2 sequence (Q9NYK1 27-1049): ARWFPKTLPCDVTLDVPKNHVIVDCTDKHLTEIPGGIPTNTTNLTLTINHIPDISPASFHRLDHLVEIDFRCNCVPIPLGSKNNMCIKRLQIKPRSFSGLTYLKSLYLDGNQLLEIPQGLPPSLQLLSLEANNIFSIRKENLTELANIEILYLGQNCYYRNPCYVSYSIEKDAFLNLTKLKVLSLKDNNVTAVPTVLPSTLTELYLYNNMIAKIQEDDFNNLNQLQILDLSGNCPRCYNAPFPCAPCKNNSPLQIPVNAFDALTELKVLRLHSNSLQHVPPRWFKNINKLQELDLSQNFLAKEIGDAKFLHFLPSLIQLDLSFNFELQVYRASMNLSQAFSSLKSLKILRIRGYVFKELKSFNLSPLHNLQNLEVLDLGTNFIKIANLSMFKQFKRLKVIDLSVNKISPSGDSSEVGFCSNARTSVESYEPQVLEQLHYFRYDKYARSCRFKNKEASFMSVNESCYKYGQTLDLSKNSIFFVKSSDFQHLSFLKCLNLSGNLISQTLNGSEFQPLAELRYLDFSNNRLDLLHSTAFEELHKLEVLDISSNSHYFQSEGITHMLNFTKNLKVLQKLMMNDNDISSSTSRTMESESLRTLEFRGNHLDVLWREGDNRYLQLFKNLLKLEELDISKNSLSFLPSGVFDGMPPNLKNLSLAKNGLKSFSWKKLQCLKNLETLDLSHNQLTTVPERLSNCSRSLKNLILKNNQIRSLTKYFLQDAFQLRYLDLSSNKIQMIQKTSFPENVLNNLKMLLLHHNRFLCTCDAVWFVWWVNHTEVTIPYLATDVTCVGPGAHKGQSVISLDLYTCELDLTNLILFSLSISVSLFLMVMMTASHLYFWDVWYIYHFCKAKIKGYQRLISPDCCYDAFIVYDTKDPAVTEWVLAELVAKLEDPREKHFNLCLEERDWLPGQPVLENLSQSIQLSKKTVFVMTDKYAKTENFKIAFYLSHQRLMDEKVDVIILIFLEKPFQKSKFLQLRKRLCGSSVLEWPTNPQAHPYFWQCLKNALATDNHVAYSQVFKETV
Protocol: The cloned human TLR7 and human TLR8 cDNA were cloned into the expression vector pCDNA3. 1 (−) from Invitrogen using the NotI site. Utilizing a “gain of function” assay, hTLR7 and hTLR8 expression vectors were transiently expressed in human 293 fibroblasts (ATCC, CRL-1573) using the calcium phosphate method. Activation was monitored by IL-8 production after stimulus with CpG-ODN (2006 or 1668, 2 μM) or LPS (100 ng/ml).

NF-kappa B activation (hTLR9): 3 fold
activation monitored by IL-8 production (hTLR7): None of the stimuli used activated
Substance: CpG ODN 2006
